Assays:
[1] = test system: human SMN2 transgene exon 7 C840T (C6T) in SMA mESCs; assay: Adenine base editing of SMN2 C840T (C6T) after transfection of SMA mESCs; format: cell-based, mouse; conditions: ABE8 fusions, FIG. 4
[2] = test system: DNA; conditions: SpCas9 mutation relative to SEQ ID NO: 5; UniProtKB Q99ZW2 entry; cited from earlier work

Molecule | editing of C840T [1] | decreased DNA cleavage [2]
iSpyMac: iSpyMac-variant ABE8e adenine base editor; SEQ ID NO: 476 | edited C840T with high efficiency | –
175-307 deletion: SpCas9 mutation relative to SEQ ID NO: 5 (protein, Streptococcus pyogenes) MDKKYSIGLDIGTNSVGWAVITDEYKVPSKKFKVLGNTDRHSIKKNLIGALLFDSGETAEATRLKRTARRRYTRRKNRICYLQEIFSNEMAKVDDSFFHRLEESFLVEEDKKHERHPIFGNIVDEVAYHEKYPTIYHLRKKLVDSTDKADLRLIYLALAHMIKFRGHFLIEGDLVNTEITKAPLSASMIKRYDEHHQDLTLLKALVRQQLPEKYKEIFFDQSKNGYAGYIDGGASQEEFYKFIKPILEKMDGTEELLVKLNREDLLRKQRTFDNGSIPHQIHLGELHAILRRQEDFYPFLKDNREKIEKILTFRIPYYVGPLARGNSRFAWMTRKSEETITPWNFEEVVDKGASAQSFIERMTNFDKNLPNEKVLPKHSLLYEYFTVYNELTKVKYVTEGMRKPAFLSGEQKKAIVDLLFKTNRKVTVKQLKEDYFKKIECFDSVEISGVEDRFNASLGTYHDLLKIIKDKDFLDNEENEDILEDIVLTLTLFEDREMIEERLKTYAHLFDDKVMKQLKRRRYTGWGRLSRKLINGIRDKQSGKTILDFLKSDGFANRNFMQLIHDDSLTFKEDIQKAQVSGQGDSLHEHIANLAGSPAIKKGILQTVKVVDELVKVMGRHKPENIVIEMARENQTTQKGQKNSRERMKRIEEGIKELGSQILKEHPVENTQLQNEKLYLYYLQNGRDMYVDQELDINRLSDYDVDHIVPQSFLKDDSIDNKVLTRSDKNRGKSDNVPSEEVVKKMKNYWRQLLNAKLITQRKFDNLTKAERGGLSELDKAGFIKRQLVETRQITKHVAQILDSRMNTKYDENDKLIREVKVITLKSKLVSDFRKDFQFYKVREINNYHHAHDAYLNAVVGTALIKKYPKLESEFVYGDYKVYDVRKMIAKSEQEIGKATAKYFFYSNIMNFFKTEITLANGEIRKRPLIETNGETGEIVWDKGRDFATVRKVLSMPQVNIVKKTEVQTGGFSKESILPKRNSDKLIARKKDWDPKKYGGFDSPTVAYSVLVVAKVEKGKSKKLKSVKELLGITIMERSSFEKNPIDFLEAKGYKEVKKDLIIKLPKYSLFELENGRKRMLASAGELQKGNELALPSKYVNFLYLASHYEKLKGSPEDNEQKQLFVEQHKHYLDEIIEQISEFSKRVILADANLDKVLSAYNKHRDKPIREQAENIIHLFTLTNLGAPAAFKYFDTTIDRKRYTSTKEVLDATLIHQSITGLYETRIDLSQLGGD | – | About 50% decreased DNA cleavage

Reference: patent US20230108687A1, “GENE EDITING METHODS FOR TREATING SPINAL MUSCULAR ATROPHY” (The Broad Institute, Inc., priority 2020, published 2023)
